Results taken from US20230081426A1, “COMPOUNDS AND METHODS FOR KRAS MODULATION AND INDICATIONS THEREFOR” (Plexxikon Inc., priority 2020, published 2023).

Columns and labels:
[1] = biological target: T1, G12D-mutant human KRAS (amino acid residues 1-188) (Homo sapiens, UniProt P01116, G12D); assay: KRAS Binding Disruption Assay (AlphaScreen; biotinylated KRpep-2d analogue or RAF1-RBD), G12D; conditions: KRAS G12D; geometric mean; read-out: KRAS GMean IC50 (uM) MUTATION: G12D
T1 construct: G12D or G12C-mutant human KRAS (amino acid residues 1-188) with FLAG tag; made in house; host or cells: E. coli
Outline: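 Displacement format with mutant KRAS, biotinylated KRpep-2d analogue or RAF1-RBD (5-20 nM each) at pH 7.5 with 5 mM MgCl2.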

[2] = biological target: T2, G12V-mutant human KRAS (amino acid residues 1-188) (Homo sapiens, UniProt P01116, G12V); assay: KRAS Binding Competition Assay (AlphaScreen; biotinylated KRpep-2d analogue), G12V; conditions: geometric mean, read-out: KRAS GMean IC50 (uM) MUTATION: G12V
T2 construct: G12V-mutant human KRAS (amino acid residues 1-188) with FLAG tag was purified from E. coli; made in house; host or cells: E. coli
Experimental: Compound binding disrupts the interaction of KRpep-2d with KRAS, leading to a decrease in Alpha signal.
All assay components were prepared in 20 mM HEPES (pH 7.5), 100 mM NaCl, 5 mM MgCl2, 0.01% Tween-20, and 0.01% BSA. Biotinylated analogues of KRpep-2d were custom synthesized. The binding competition assays were performed using 10 nM of mutant KRAS and 10 nM of biotinylated KRpep-2d analogue. 19 μL of KRAS protein and 4 μL of biotinylated KRpep-2d were added to the wells of a 384-well plate containing 1 μL of various concentrations of test compound or DMSO vehicle. 16 wells containing KRAS, biotinylated KRpep-2d, and 5% DMSO served as high controls. 16 wells containing KRAS only and 5% DMSO served as low controls. Binding reactions were incubated for 1 hour at 25° C., then Anti-Flag Acceptor and Streptavidin Donor Alpha beads were added at a final concentration of 10 μg/mL for an additional hour at room temperature. Alpha signal was read out on a Perkin Elmer Envision HTS instrument. The percentage inhibition at individual compound concentrations relative to high and low controls was calculated. The data were analyzed by using nonlinear regression to generate IC50 values.

Structure (SMILES)	IC50 [1] [µM]	IC50 [2] [µM]
CN1CCC[C@H]1CNc1nc(N2C[C@H]3CC[C@@H](C2)N3)c2ccc(-c3cc(O)cc4ccccc34)cc2n1 [P-0016, 4-(4-((1R,5S)-3,8-diazabicyclo[3.2.1]octan-3-yl)-2-((((S)-1-methylpyrrolidin-2-yl)methyl)amino)quinazolin-7-yl)naphthalen-2-ol]	0.0001 to 10	10 to 100
O=C(NCCN1CCOCC1)N1[C@@H]2CC[C@H]1CN(c1nc(OCC34CCCN3CCC4)nc3cc(-c4cc(O)cc5ccccc45)ccc13)C2 [P-0029, (1R,5S)-3-(7-(3-hydroxynaphthalen-1-yl)-2-((tetrahydro-1H-pyrrolizin-7a(5H)-yl)methoxy)quinazolin-4-yl)-N-(2-morpholinoethyl)-3,8-diazabicyclo[3.2.1]octane-8-carboxamide]	0.0001 to 10	0.0001 to 10
Oc1cc(-c2ccc3c(C4=C[C@@H]5CC[C@H](C4)N5)nc(OCC45CCCN4CCC5)nc3c2)c2ccccc2c1 [P-0054, 4-(4-((1S,5R)-8-azabicyclo[3.2.1]oct-2-en-3-yl)-2-((tetrahydro-1H-pyrrolizin-7a(5H)-yl)methoxy)quinazolin-7-yl)naphthalen-2-ol]	0.0001 to 10	10 to 100
CN1C[C@H](F)C[C@H]1COc1nc(N2C[C@H]3CC[C@@H](C2)N3)c2ccc(-c3cc(O)cc4ccccc34)cc2n1 [P-0072, 4-(4-((1R,5S)-3,8-diazabicyclo[3.2.1]octan-3-yl)-2-(((2S,4R)-4-fluoro-1-methylpyrrolidin-2-yl)methoxy)quinazolin-7-yl)naphthalen-2-ol]	0.0001 to 10	0.0001 to 10
O=C(NC1CCCC1)N1[C@@H]2CC[C@H]1CN(c1nc(OCC34CCCN3CCC4)nc3cc(-c4cc(O)cc5ccccc45)ccc13)C2 [P-0075, (1R,5S)-N-cyclopentyl-3-(7-(3-hydroxynaphthalen-1-yl)-2-((tetrahydro-1H-pyrrolizin-7a(5H)-yl)methoxy)quinazolin-4-yl)-3,8-diazabicyclo[3.2.1]octane-8-carboxamide]	0.0001 to 10	0.0001 to 10
CC(=O)OCC(=O)N1[C@@H]2CC[C@H]1CN(c1nc(OCC34CCCN3CCC4)nc3cc(-c4cc(O)cc5ccccc45)ccc13)C2 [P-0089, 2-((1R,5S)-3-(7-(3-hydroxynaphthalen-1-yl)-2-((tetrahydro-1H-pyrrolizin-7a(5H)-yl)methoxy)quinazolin-4-yl)-3,8-diazabicyclo[3.2.1]octan-8-yl)-2-oxoethyl acetate]	0.0001 to 10	0.0001 to 10
CCOC(=O)CNC(=O)N1[C@@H]2CC[C@H]1CN(c1nc(OCC34CCCN3CCC4)nc3cc(-c4cc(O)cc5ccccc45)ccc13)C2 [P-0090, ethyl ((1R,5S)-3-(7-(3-hydroxynaphthalen-1-yl)-2-((tetrahydro-1H-pyrrolizin-7a(5H)-yl)methoxy)quinazolin-4-yl)-3,8-diazabicyclo[3.2.1]octane-8-carbonyl)glycinate]	0.0001 to 10	0.0001 to 10
CC(=O)NCC(=O)N1[C@@H]2CC[C@H]1CN(c1nc(OCC34CCCN3CCC4)nc3cc(-c4cc(O)cc5ccccc45)ccc13)C2 [P-0091, N-(2-((1R,5S)-3-(7-(3-hydroxynaphthalen-1-yl)-2-((tetrahydro-1H-pyrrolizin-7a(5H)-yl)methoxy)quinazolin-4-yl)-3,8-diazabicyclo[3.2.1]octan-8-yl)-2-oxoethyl)acetamide]	0.0001 to 10	0.0001 to 10
O=C(CN1CCCS1(=O)=O)N1[C@@H]2CC[C@H]1CN(c1nc(OCC34CCCN3CCC4)nc3cc(-c4cc(O)cc5ccccc45)ccc13)C2 [P-0092, 2-(1,1-dioxidoisothiazolidin-2-yl)-1-((1R,5S)-3-(7-(3-hydroxynaphthalen-1-yl)-2-((tetrahydro-1H-pyrrolizin-7a(5H)-yl)methoxy)quinazolin-4-yl)-3,8-diazabicyclo[3.2.1]octan-8-yl)ethan-1-one]	0.0001 to 10	0.0001 to 10

Results, then the molecule that gave them:

IC50 [1] [µM]	IC50 [2] [µM]	Structure (SMILES)
0.0001 to 10	100 to 1000	Cc1ccc2[nH]ncc2c1-c1c(Cl)cc2c(N3C[C@H]4CC[C@@H](C3)N4)nc(OC[C@@H]3CCCN3C)nc2c1F [P-0028, 4-((1R,5S)-3,8-diazabicyclo[3.2.1]octan-3-yl)-6-chloro-8-fluoro-7-(5-methyl-1H-indazol-4-yl)-2-(((S)-1-methylpyrrolidin-2-yl)methoxy)quinazoline]
0.0001 to 10	10 to 100	CN1CCC[C@H]1COc1nc(N2CC3CC(C2)N3)c2cc(Cl)c(-c3cc(O)cc4ccccc34)c(F)c2n1 [P-0031, 4-(4-(3,6-diazabicyclo[3.1.1]heptan-3-yl)-6-chloro-8-fluoro-2-(((S)-1-methylpyrrolidin-2-yl)methoxy)quinazolin-7-yl)naphthalen-2-ol]
0.0001 to 10	10 to 100	CN1CCC[C@H]1COc1nc(N2C[C@@H]3C[C@H]2CN3)c2cc(Cl)c(-c3cc(O)cc4ccccc34)c(F)c2n1 [P-0042, 4-(4-((1S,4S)-2,5-diazabicyclo[2.2.1]heptan-2-yl)-6-chloro-8-fluoro-2-(((S)-1-methylpyrrolidin-2-yl)methoxy)quinazolin-7-yl)naphthalen-2-ol]
0.0001 to 10	10 to 100	CN1CCC[C@H]1COc1nc(N2C[C@H]3CC[C@@H](C2)N3)c2cc(Cl)c(-c3cc(O)cc4ccccc34)cc2n1 [P-0043, 4-(4-((1R,5S)-3,8-diazabicyclo[3.2.1]octan-3-yl)-6-chloro-2-(((S)-1-methylpyrrolidin-2-yl)methoxy)quinazolin-7-yl)naphthalen-2-ol]
0.0001 to 10	10 to 100	CN1CCC[C@H]1COc1nc(N2CCC3CCC(C2)N3)c2cc(Cl)c(-c3cc(O)cc4ccccc34)c(F)c2n1 (stereo partly drawn) [P-0046, 4-(4-(3,9-diazabicyclo[4.2.1]nonan-3-yl)-6-chloro-8-fluoro-2-(((S)-1-methylpyrrolidin-2-yl)methoxy)quinazolin-7-yl)naphthalen-2-ol]
0.0001 to 10	0.0001 to 10	Oc1cc(-c2c(Cl)cc3c(N4C[C@H]5CC[C@@H](C4)N5)nc(OCC45CCCN4CC(F)(F)C5)nc3c2F)c2ccccc2c1 (stereo partly drawn) [P-0047, 4-(4-((1R,5S)-3,8-diazabicyclo[3.2.1]octan-3-yl)-6-chloro-2-((2,2-difluorotetrahydro-1H-pyrrolizin-7a(5H)-yl)methoxy)-8-fluoroquinazolin-7-yl)naphthalen-2-ol]
0.0001 to 10	10 to 100	CN1CCC[C@H]1COc1nc(N2CC3CCC2CN3)c2ccc(-c3cc(O)cc4ccccc34)cc2n1 (stereo partly drawn) [P-0050, 4-(4-(2,5-diazabicyclo[2.2.2]octan-2-yl)-2-(((S)-1-methylpyrrolidin-2-yl)methoxy)quinazolin-7-yl)naphthalen-2-ol]
0.0001 to 10	0.0001 to 10	Cc1cccc2cc(O)cc(-c3ccc4c(N5C[C@H]6CC[C@@H](C5)N6)nc(OC[C@@H]5CCCN5C)nc4c3F)c12 [P-0073, 4-(4-((1R,5S)-3,8-diazabicyclo[3.2.1]octan-3-yl)-8-fluoro-2-(((S)-1-methylpyrrolidin-2-yl)methoxy)quinazolin-7-yl)-5-methylnaphthalen-2-ol]
0.0001 to 10	10 to 100	Oc1cc(-c2ccc3c(N4C[C@H]5CC[C@@H](C4)N5)nc(OC[C@@H]4CCCN4CCF)nc3c2)c2ccccc2c1 [P-0077, 4-(4-((1R,5S)-3,8-diazabicyclo[3.2.1]octan-3-yl)-2-(((S)-1-(2-fluoroethyl)pyrrolidin-2-yl)methoxy)quinazolin-7-yl)naphthalen-2-ol]
0.0001 to 10	10 to 100	CN1CCC[C@@H](COc2nc(N3C[C@H]4CC[C@@H](C3)N4)c3ccc(-c4cc(O)cc5ccccc45)cc3n2)C1 [P-0078, 4-(4-((1R,5S)-3,8-diazabicyclo[3.2.1]octan-3-yl)-2-(((R)-1-methylpiperidin-3-yl)methoxy)quinazolin-7-yl)naphthalen-2-ol]
0.0001 to 10	10 to 100	CN1CCCC[C@H]1COc1nc(N2C[C@H]3CC[C@@H](C2)N3)c2ccc(-c3cc(O)cc4ccccc34)cc2n1 [P-0079, 4-(4-((1R,5S)-3,8-diazabicyclo[3.2.1]octan-3-yl)-2-(((S)-1-methylpiperidin-2-yl)methoxy)quinazolin-7-yl)naphthalen-2-ol]
0.0001 to 10	10 to 100	CCN1CCC[C@H]1COc1nc(N2C[C@H]3CC[C@@H](C2)N3)c2ccc(-c3cc(O)cc4ccccc34)cc2n1 [P-0080, 4-(4-((1R,5S)-3,8-diazabicyclo[3.2.1]octan-3-yl)-2-(((S)-1-ethylpyrrolidin-2-yl)methoxy)quinazolin-7-yl)naphthalen-2-ol]
0.0001 to 10	0.0001 to 10	Cc1cccc2cc(O)cc(-c3c(F)cc4c(N5C[C@H]6CC[C@@H](C5)N6)nc(OC[C@@H]5CCCN5C)nc4c3F)c12 [P-0087, 4-(4-((1R,5S)-3,8-diazabicyclo[3.2.1]octan-3-yl)-6,8-difluoro-2-(((S)-1-methylpyrrolidin-2-yl)methoxy)quinazolin-7-yl)-5-methylnaphthalen-2-ol]
